Converted amounts (≈) assume the structure as drawn.
Key:
CHO [1] = assay: Selectivity ratio of Ki for human OX1R I408V mutant expressed in CHO cells to Ki for human OX2R expressed in CHO cells; format: cell-based
[2] = biological target: T1, Orexin/Hypocretin receptor type 1 (Homo sapiens, UniProt O43613, I408V); assay: Displacement of N-cyclobutyl-5-methyl-N-(2-([3H]-1-methyl-1H-benzo[d]imidazol-2-ylthio)ethyl)-2-(2H-1,2,3-triazol-2-yl)benzamide from human OX1R I408V mutant expressed in CHO cells by topcount analysis; format: cell-based
T1 sequence (O43613 whole entry I408V): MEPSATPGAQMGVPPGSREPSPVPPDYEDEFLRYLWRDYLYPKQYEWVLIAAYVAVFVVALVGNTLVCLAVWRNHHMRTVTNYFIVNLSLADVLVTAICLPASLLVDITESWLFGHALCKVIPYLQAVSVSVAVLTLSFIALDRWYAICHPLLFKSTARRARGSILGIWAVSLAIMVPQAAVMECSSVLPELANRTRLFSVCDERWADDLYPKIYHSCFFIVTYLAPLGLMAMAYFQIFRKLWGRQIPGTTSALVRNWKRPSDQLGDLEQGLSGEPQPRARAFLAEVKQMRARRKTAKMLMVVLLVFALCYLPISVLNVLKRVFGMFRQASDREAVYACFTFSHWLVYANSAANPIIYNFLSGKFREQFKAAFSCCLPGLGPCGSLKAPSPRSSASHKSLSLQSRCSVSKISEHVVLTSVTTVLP

[3] = biological target: T1, Orexin/Hypocretin receptor type 1; assay: Antagonist activity at human OX1R I408V mutant expressed in CHO cells assessed as inhibition of Ala-6,12-orexinA-induced effect after 5 mins by FLIPR assay; format: cell-based
Orexin receptor type 2 [4] = biological target: T2, Orexin receptor type 2 (Homo sapiens, UniProt O43614); assay: Antagonist activity at human OX2R expressed in CHO cells assessed as inhibition of Ala-6,12-orexinA-induced effect after 5 mins by FLIPR assay; format: cell-based
T2 sequence (O43614 whole entry): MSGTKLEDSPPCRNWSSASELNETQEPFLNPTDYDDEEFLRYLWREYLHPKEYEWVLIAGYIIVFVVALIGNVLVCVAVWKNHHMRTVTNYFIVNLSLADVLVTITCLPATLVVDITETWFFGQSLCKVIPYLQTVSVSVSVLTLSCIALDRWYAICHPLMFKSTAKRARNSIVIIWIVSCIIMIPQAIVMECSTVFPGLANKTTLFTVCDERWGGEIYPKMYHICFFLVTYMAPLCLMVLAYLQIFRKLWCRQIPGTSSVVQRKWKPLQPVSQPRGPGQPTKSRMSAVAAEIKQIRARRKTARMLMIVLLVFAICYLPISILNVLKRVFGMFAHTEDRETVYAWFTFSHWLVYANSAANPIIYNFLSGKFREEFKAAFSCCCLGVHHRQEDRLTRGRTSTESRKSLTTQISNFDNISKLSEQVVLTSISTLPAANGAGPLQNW

CHO [5] = assay: Selectivity ratio of IC50 for human OX1R Ile408Val mutant expressed in CHO cells to IC50 for human OX2R expressed in CHO cells; format: cell-based
Orexin receptor type 2 [6] = biological target: T2, Orexin receptor type 2; assay: Displacement of (S)-N-(2-(1H-pyrrol-1-yl)phenyl)-1-(2-([3H]-1-methyl-1H-benzo[d]imidazol-2-ylthio)acetyl)pyrrolidine-2-carboxamide from human OX2R expressed in CHO cells after 3 hrs by topcount analysis; format: cell-based
[7] = Clearance in dog with cassette dosing; format: ADME, organism-based, Canis lupus familiaris; details: in vivo
Cytochrome P450 3A4 = Cytochrome P450 3A4 (Homo sapiens, UniProt P08684); assay: (§1) Time dependent inhibition of CYP3A4 (unknown origin); format: ADME
Cytochrome P450 3A4, sequence (P08684 whole entry): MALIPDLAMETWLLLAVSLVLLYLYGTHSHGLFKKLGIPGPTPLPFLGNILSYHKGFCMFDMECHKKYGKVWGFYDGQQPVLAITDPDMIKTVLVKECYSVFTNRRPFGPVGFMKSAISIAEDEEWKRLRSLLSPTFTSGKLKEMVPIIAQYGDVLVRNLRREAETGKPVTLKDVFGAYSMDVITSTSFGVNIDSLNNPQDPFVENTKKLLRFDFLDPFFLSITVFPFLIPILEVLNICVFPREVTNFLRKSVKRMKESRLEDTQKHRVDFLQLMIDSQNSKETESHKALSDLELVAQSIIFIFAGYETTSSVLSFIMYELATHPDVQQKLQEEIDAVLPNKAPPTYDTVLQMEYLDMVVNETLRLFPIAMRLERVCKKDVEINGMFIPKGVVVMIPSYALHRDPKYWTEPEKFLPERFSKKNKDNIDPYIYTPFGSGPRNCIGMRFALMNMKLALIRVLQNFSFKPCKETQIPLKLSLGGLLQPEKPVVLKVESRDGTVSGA

CYP3A4 [8] = biological target: T3, CYP3A4 (Homo sapiens, UniProt P08684); assay: as §1; format: ADME; details: human
T3 sequence (P08684 whole entry): as above

CYP3A4 [9] = biological target: T3, CYP3A4; assay: Ratio of Kinact to Ki for CYP3A4 (unknown origin); format: ADME
[10] = Drug degradation in buffer assessed as compound remaining at pH 2 after 24 hrs; format: physicochemical; details: for remaining at 24 h: pH 2, read-out: Stability
[11] = Solubility of the compound in buffer at pH 2; format: physicochemical
[12] = Solubility of the compound in buffer at pH 7; format: physicochemical

SMILES | Ki [2] [µM] | IC50 [3] [µM] | IC50 (Orexin receptor type 2 [4]) [µM] | Ki (Orexin receptor type 2 [6]) [µM] | clearance [7] [L/h/kg] | Ki (Cytochrome P450 3A4) [µM] | kinact (CYP3A4 [8]) [s⁻¹] | kinact/KI (CYP3A4 [9]) [M⁻¹ s⁻¹] | Stability ([10]; pH 2, 24 h) | remaining at 24 h [10] [%] | solubility [11] [µM] | solubility [12] [µM] | Ratio Ki (CHO [1]) | Ratio IC50 (CHO [5])
COc1ccc(CNC(=O)c2sc(-c3cncc(C)c3)nc2-c2cccc(F)c2)nc1OC | 12 | > 10 | 1.06 | 0.14 |  |  |  |  |  |  |  |  | 86 | > 9
COc1ccc(CNC(=O)c2cc(-c3cncc(Cl)c3)cnc2-c2ccccc2)nc1OC |  |  |  |  |  |  |  |  |  | 100 | 16 (≈ 7.37 µg/mL) | 10 (≈ 4.61 µg/mL) |  | 
COc1ccc(CNC(=O)c2cc(-c3cncc(C)c3)ncc2N2CCCC2)nc1OC | 14 | 10 | 0.037 | 0.0045 |  |  |  |  |  |  |  |  | 3110 | > 270
COc1ccc(CNC(=O)c2cc(-c3cncc(C)c3)ncc2-c2ccnnc2)nc1OC | 39 | 15 | 1.45 | 0.193 |  |  |  |  |  |  |  |  | 202 | > 10
COc1ccc(CNC(=O)c2nc(-c3cncc(C)c3)cnc2-c2ccccc2)nc1OC | 8.5 | > 20 | 0.031 |  | 2.22 |  |  |  |  |  |  |  | 6070 | > 645
COc1ccc(CNC(=O)c2cc(-c3cncc(C)c3)ncc2N2CCC2)nc1OC | 18 | 10 | 0.083 | 0.01 | 1.14 |  |  |  |  |  |  |  | 1800 | > 120
COc1ccc(CNC(=O)c2cc(-c3cncc(C)c3)ncc2-c2cncc(F)c2)nc1OC | 17 | 10 | 0.057 | 0.0052 | 1.14 |  |  |  |  |  |  |  | 3270 | 192
COc1ccc(CNC(=O)c2nc(-c3cncc(C)c3)ncc2-c2ccccc2)nc1OC | 23 | > 10 | 0.12 | 0.011 | 2.82 |  |  |  |  |  |  |  |  | > 83
COc1ccc(CNC(=O)c2cc(-c3cncc(C)c3)ncc2-c2ccccc2F)nc1OC | 8.6 | 3 | 0.025 | 0.0014 | 1.02 |  |  |  |  |  |  |  | 6140 | 120
COc1ccc(CNC(=O)c2cc(-c3cncc(C)c3)nnc2-c2ccccc2)nc1OC | 15 | > 10 | 0.17 | 0.011 |  |  |  |  |  |  |  |  | 1360 | > 59
COc1ccc(CNC(=O)c2cc(-c3cncc(Cl)c3)cnc2-c2ccccn2)nc1OC [MK-1064] |  |  |  |  |  | 9.5 | 0.00183 | 200 |  |  |  |  |  | 
COc1ccc(CNC(=O)c2cc(-c3cncc(C)c3)ncc2-c2cnccn2)nc1OC | 31 | 10 | 0.109 | 0.0076 | 1.44 |  |  |  |  |  |  |  | 4080 | > 92

The remaining molecules from weak to strong by Ki [2], led by results:

Ki [2] [µM] | IC50 [3] [µM] | IC50 (Orexin receptor type 2 [4]) [µM] | Ki (Orexin receptor type 2 [6]) [µM] | clearance [7] [L/h/kg] | Ki (Cytochrome P450 3A4) [µM] | kinact (CYP3A4 [8]) [s⁻¹] | kinact/KI (CYP3A4 [9]) [M⁻¹ s⁻¹] | Stability ([10]; pH 2, 24 h) | remaining at 24 h [10] [%] | solubility [11] [µM] | solubility [12] [µM] | SMILES | Ratio Ki (CHO [1]) | Ratio IC50 (CHO [5])
7.9 | 4.65 | 0.036 | 0.0014 |  |  |  |  |  |  |  |  | COc1ccc(CNC(=O)c2cc(-c3cncc(C)c3)ncc2-c2ccccn2)nc1OC | 5640 | 129
4.1 | > 10 | 0.42 | 0.009 |  |  |  |  |  |  |  |  | COc1ccc(CNC(=O)c2cc(-c3cncc(C)c3)nc3onc(-c4ccccc4)c23)nc1OC | 456 | > 24
4 | 1.95 | 0.016 |  | 1.08 |  |  |  |  |  |  |  | COc1ccc(CNC(=O)c2cc(-c3cncc(C)c3)ncc2-c2cccc(F)c2)nc1OC | 4440 | 122
2.7 | 2.8 | 0.021 | 0.0005 | 0.9 | 5.6 | 0.000217 | 217 | Stable |  |  |  | COc1ccc(CNC(=O)c2cc(-c3cncc(C)c3)ncc2-c2ccccc2)nc1OC | 5400 | 133
2.4 |  |  | 0.043 | 1.68 |  |  |  |  |  |  |  | COc1ccc(CNC(=O)c2nc(-c3cncc(C)c3)ccc2-c2ccccc2)nc1OC | 56 | 
1.5 | 10 | 3.5 | 0.075 | 0.9 |  |  |  |  |  |  |  | COc1ccc(CNC(=O)c2cc(-c3cncc(C)c3)ncc2N2CCOCC2)nc1OC | 20 | > 3
1 | 1.54 | 0.014 | 0.0003 | 3.06 |  |  |  |  |  |  |  | COc1ccc(CNC(=O)c2cc(-c3cncc(C)c3)ccc2-c2ccccc2)nc1OC | 3330 | 110
0.93 | 10 | 0.167 | 0.0041 |  |  |  |  |  |  |  |  | COc1ccc(CNC(=O)c2cc(-c3cncc(C)c3)ncc2-c2cnn(C)c2)nc1OC | 227 | > 60
0.72 | 2 | 0.013 | 0.0003 | 1.62 |  |  |  |  | 100 | 180 (≈ 79.3 µg/mL) | 61 (≈ 26.9 µg/mL) | COc1ccc(CNC(=O)c2cc(-c3cncc(C)c3)cnc2-c2ccccc2)nc1OC | 2400 | 154
